In ChEMBL document CHEMBL1933012, “Design and diversity-oriented synthesis of novel 1,4-thiazepan-3-ones fused with bioactive heterocyclic skeletons and evaluation of their antioxidant and cytotoxic activities” (Bioorg Med Chem Lett, 2012):

Tests used:
[1] = Cytotoxicity against mouse spleen lymphocytes assessed as cell viability at 1 mg/mL after 48 hrs by MTT assay relative to control; format: tissue-based, Lymphocyte; details: read-out: Activity
HCT-116 = experiment: Growth inhibition of human HCT116 cells at 1 mg/mL after 48 hrs by MTT assay; format: functional; details: HCT-116, 48 h, read-out: GI

Row | Compound | viability at 48 h, 1 mg/mL [1] [%] | inhibition of growth at 1000 µg/mL (HCT-116) [%]
1 | Cc1nn(-c2ccccc2)c2c1C(c1ccc3c(c1)OCO3)SCC(=O)N2 (configuration not stated) | 66.9 | 51.3
2 | COc1ccc(C2SCC(=O)Nc3c2c(C)nn3-c2ccccc2)cc1 (configuration not stated) | 78.8 | 57.8
3 | CCn1c2ccccc2c2c3c(ccc21)NC(=O)CSC3c1ccc(C)cc1 (configuration not stated) | 93.2 | 53.4
4 | CCn1c2ccccc2c2c3c(ccc21)NC(=O)CSC3c1ccc(OC)cc1 (configuration not stated) | 51.4 | 58.9
5 | CCn1c2ccccc2c2c3c(ccc21)NC(=O)CSC3c1ccc2c(c1)OCO2 (configuration not stated) | 158 | 51.6
6 | CCn1c2ccccc2c2c3c(ccc21)NC(=O)CSC3c1ccc(OC)c(OC)c1 (configuration not stated) | 101 | 56.2
7 | CCn1c2ccccc2c2c3c(ccc21)NC(=O)CSC3c1cccs1 (configuration not stated) | 45 | 60.3
8 | CCn1c2ccccc2c2c3c(ccc21)NC(=O)CSC3c1ccc(Br)cc1 (configuration not stated) | 136 | 62
9 | COc1ccc(C2SCC(=O)Nc3ccc4[nH]ncc4c32)cc1 (configuration not stated) | 44.8 | 61.8
10 | Cc1ccc(C2SCC(=O)Nc3ccc4[nH]ncc4c32)cc1 (configuration not stated) | 20.5 | 66.8
11 | O=C1CSC(c2ccc3c(c2)OCO3)c2c(ccc3[nH]ccc23)N1 (configuration not stated) | 155 | 55.9
12 | COc1cc(C2SCC(=O)Nc3ccc4[nH]ncc4c32)cc(OC)c1OC (configuration not stated) | 166 | 58.2
13 | O=C1CSC(c2ccc(Br)cc2)c2c(ccc3[nH]ncc23)N1 (configuration not stated) | 42.6 | 63.4
14 | O=C1CSC(c2ccc(Cl)cc2)c2c(ccc3[nH]ncc23)N1 (configuration not stated) | 67.9 | 60.9
15 | Cc1ccc(C2SCC(=O)Nc3c2c(C)nn3-c2ccccc2)cc1 (configuration not stated) | 25.7 | 58.4
16 | Cc1nn(-c2ccccc2)c2c1C(c1ccc(Cl)cc1)SCC(=O)N2 (configuration not stated) | 82.3 | 50.2
17 | Cc1nn(-c2ccccc2)c2c1C(c1ccccc1Cl)SCC(=O)N2 (configuration not stated) | 68.7 | 55.3
18 | Cc1nn(-c2ccccc2)c2c1C(c1ccc(Cl)cc1Cl)SCC(=O)N2 (configuration not stated) | 156 | 53.3
19 | Cc1ccc(C2SCC(=O)Nc3onc(C)c32)cc1 (configuration not stated) | 103 | 64.7
20 | Cc1noc2c1C(c1ccc3c(c1)OCO3)SCC(=O)N2 (configuration not stated) | 87.2 | 50.4
21 | COc1ccc(C2SCC(=O)Nc3onc(C)c32)cc1OC (configuration not stated) | 165 | 54.6
22 | Cc1noc2c1C(c1cccs1)SCC(=O)N2 (configuration not stated) | 160 | 62.6
23 | Cc1nn(-c2ccccc2)c2c1C(c1cccc([N+](=O)[O-])c1)SCC(=O)N2 (configuration not stated) | 154 | 54.3
24 | COc1ccc(C2SCC(=O)Nc3onc(C)c32)cc1 (configuration not stated) | 165 | 60.3
25 | Cc1noc2c1C(c1ccccc1Cl)SCC(=O)N2 (configuration not stated) | 170 | 54.6
26 | Cc1noc2c1C(c1ccc(Br)cc1)SCC(=O)N2 (configuration not stated) | 157 | 63
